Data reported in paper PMC4355058 (Analytical biochemistry, 2014).
Where a name gives a salt, the structure may show the parent alone. Read-outs that look alike come from different tables or passages of the source.

Key:
A2a-8M receptor = A2a-8M receptor (Homo sapiens, UniProt P29274, A54L/K122A/L202A/L235A/N154A/R107A/S277A/T88A/V239A); assay: Isothermal chemical denaturation
A2aR = conditions: read-out: Kd, SPR study at 10°C; cited from earlier work
WT A2a receptor = conditions: cited from earlier work
A2a-8M [1] = biological target: A2a-8M (Homo sapiens, UniProt P29274, A54L/K122A/L202A/L235A/R107A/S277A/T88A/V239A); assay: SPR analysis of small molecule binding
Sequence of A2a-8M (Homo sapiens, UniProt P29274, A54L/K122A/L202A/L235A/R107A/S277A/T88A/V239A) (P29274 1-317 A54L/T88A/R107A/K122A/L202A/L235A/V239A/S277A): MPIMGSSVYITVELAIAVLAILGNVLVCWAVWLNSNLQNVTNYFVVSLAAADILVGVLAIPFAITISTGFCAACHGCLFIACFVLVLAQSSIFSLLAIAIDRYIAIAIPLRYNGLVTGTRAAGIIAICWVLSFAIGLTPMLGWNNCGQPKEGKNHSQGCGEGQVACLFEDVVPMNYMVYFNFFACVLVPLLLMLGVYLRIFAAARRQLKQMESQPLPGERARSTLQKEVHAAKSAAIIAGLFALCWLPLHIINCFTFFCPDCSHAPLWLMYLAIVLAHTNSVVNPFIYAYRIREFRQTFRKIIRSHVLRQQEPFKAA

A2a-8M [2] = assay: SPR analysis of small molecule binding; conditions: read-out: SPR Kd
[3] = [L] = 2 μM, 25°C, 338 nm (SCH58261 at 316 nm), apo 1.37
[4] = [L] = 2 μM, 25°C, 338 nm (SCH58261 at 316 nm), apo 2.90 (338 nm), 2.88 (316 nm)
[5] = [L] = 21 μM, 25°C, 338 nm, apo 1.37
[6] = [L] = 21 μM, 25°C, 338 nm, apo 2.90
[7] = [L] = 21 μM, 25°C, protein […], 338 nm, apo 3.96

Sequence of A2a-8M receptor (P29274 1-316 A54L/T88A/R107A/K122A/N154A/L202A/L235A/V239A/S277A): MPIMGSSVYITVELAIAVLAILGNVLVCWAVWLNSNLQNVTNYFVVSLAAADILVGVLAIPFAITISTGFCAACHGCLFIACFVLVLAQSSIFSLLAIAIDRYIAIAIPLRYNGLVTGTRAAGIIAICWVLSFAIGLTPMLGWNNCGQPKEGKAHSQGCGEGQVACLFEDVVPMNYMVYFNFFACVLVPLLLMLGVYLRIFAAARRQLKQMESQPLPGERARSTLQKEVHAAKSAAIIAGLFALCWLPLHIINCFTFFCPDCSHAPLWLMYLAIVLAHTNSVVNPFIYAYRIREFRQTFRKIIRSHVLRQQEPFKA

Row | Structure (SMILES) | C½ (midpoint of denaturation curve) (A2a-8M receptor; [4]) [M GuHCl] | m (A2a-8M receptor; [5]) [kcal/mol×M] | C½ (midpoint of denaturation curve) (A2a-8M receptor; [6]) [M GuHCl] | ΔG (Gibbs energy of protein stability in presence of ligand) (A2a-8M receptor; [7]) [kcal/mol] | other results
1 | c1ccc(NCc2ccc(CNc3ccccn3)cc2)nc1 [WZ811] | 2.98 |  |  |  | m (A2a-8M receptor; [3]): 1.19 kcal/mol×M
2 | CCCn1c(=O)[nH]c2nc(-c3ccc(S(=O)(=O)O)cc3)[nH]c2c1=O [PSB1115] | 3.82 |  |  |  | m (A2a-8M receptor; [3]): 1.63 kcal/mol×M; Kd (A2aR): 0.158 µM
3 | CN1CCc2cccc(Cl)c2CC1.Cl [SKF86466 HCl] |  | 1.55 | 2.18 | 3.38 | 
4 | N=C(N)NC(=O)Cc1c(Cl)cccc1Cl [Guanfacine HCl] |  | 1.37 | 2.25 | 3.08 | 
5 | COC1CCN(c2cccc(-c3cc(NC(C)=O)nc(-n4nc(C)cc4C)n3)n2)CC1 [TC-G1004] |  |  |  |  | m (A2a-8M receptor; [L] = 0.4 μM, 25°C, 338 nm (SCH442416 at 316 nm), apo 1.37): 1.42 kcal/mol×M
6 | COc1ccc(CCCn2ncc3c2nc(N)n2nc(-c4ccco4)nc32)cc1 [SCH442416] |  |  |  |  | binding affinity (WT A2a receptor): 50 pm
7 | CCOc1nc2c(N)ncnc2n1CC [ANR94] |  | 1.65 | 3.53 | 5.82 | 
8 | N#Cc1c(N)nc(SCc2ncc[nH]2)c(C#N)c1-c1ccc(O)cc1 [LUF5834] | 3.18 |  |  |  | m (A2a-8M receptor; [3]): 1.90 kcal/mol×M
9 | Cn1c(=O)c2c(ncn2C)n(C)c1=O [Caffeine] | 3.28 |  |  |  | 
10 | CCCCC#Cc1nc(NC)c2ncn([C@@H]3O[C@H](CO)[C@@H](O)[C@H]3O)c2n1 [Hemado] |  | 1.77 | 2.59 | 4.59 | 
11 | Nc1nc2c(cnn2CCc2ccccc2)c2nc(-c3ccco3)nn12 [SCH58261] |  |  |  |  | Kd (A2a-8M [2]): 0.014 µM; C½ (midpoint of denaturation curve) (A2a-8M receptor): 3.91 M GuHCl; m (A2a-8M receptor): 1.80 kcal/mol×M; ΔG (Gibbs energy of protein stability in presence of ligand) (A2a-8M receptor): 7.01 kcal/mol
12 | CCNC(=O)[C@H]1O[C@@H](n2cnc3c(N)nc(NCCc4ccc(CCC(=O)O)cc4)nc32)[C@H](O)[C@@H]1O [CGS21680] |  |  |  |  | binding affinity (WT A2a receptor): > 10 µM

Now from value to compound, other results behind:

Row | C½ (midpoint of denaturation curve) (A2a-8M receptor; [4]) [M GuHCl] | m (A2a-8M receptor; [5]) [kcal/mol×M] | C½ (midpoint of denaturation curve) (A2a-8M receptor; [6]) [M GuHCl] | ΔG (Gibbs energy of protein stability in presence of ligand) (A2a-8M receptor; [7]) [kcal/mol] | Structure (SMILES) | other results
13 |  | 1.56 | 2.22 | 3.47 | Nc1nc(SCCc2ccc(S(=O)(=O)O)cc2)nc2c1ncn2[C@@H]1O[C@H](CO)[C@@H](O)[C@H]1O [PSB0777] | 
14 |  | 1.50 | 3.41 | 5.11 | Cl.Cl.OCCOCCN1CCN(Cc2cccc(Oc3ccccc3)c2)CC1 [ZK756326] | 
15 | 3.20 |  |  |  | CCO/C(O)=C1\C(C)=NC(c2ccccc2)=C(C(=O)OCc2ccc([N+](=O)[O-])cc2)C1C#Cc1ccccc1 (stereo not shown) [MRS1334] | Kd (A2a-8M [1]): 5.9 µM; Kd (A2a-8M receptor): 5.5 µM; m (A2a-8M receptor; [3]): 1.30 kcal/mol×M
